Laboratory results reported in patent publication EP3829579B1, “1,3,8-TRIAZASPIRO COMPOUNDS AND THEIR USE AS MEDICAMENTS FOR THE TREATMENT OF REPERFUSION INJURY” (Maria Cecilia Hospital S.p.A., priority 2018, dated 2020).

Legend:
[1] = tested on: ATP synthesis; experiment: luciferin-luciferase assay of mitochondrial ATP; format: cell-based; settings: living cells, basal conditions and following Ca2+-dependent stimulus
Source text: (§1) The data were obtained by recording the absorbance changes at 540 nm at the tenth minute of measurement, and subsequently converted to a percentage. Black bar: untreated and unstimulated mitochondria; black control bar: untreated and Ca2+ stimulated mitochondria; dark grey bar: pre-treatment with CsA and stimulation with Ca2+; light bar: pre-treatment with RR and stimulation with Ca2+; first white bar from the top: treatment with compound 1 and stimulation with Ca2+; white bars: pre-treatment with the compounds of the invention and stimulation with Ca2+. […] The subcellular localization of compound 1 was studied by HPLC-HRMS analysis of samples from different cellular compartments, before and after treatment with the compound. […] The grey region of the HPLC spectrum corresponds to a single mass peak at [M+1]+ m/z of 386.1534 (lower panel, [M+H]+ calculated for compound 1 = 386.1533). […] The grey band of the HPLC spectrum corresponds to a mixture of mass peaks detected through the HRMS analysis (lower panel). C: HPLC-HRMS profile of the mitochondrial fraction isolated from cells pre-treated with compound 1 which clearly indicates the presence of the compound with an HPLC band at a retention time of 8.2 min (upper panel). The grey area of the signal corresponds to a mixture of mass peaks (lower panel) among which [M+1]+ m/z of 386.1534, which identifies the undetectable compound 1 in the corresponding untreated fraction (panel B). […] A: Content of mitochondrial ATP in living cells under basal conditions, evaluated based on the luciferase-luciferin protocol. B: Mitochondrial ATP production following stimulation by a Ca2+ dependent agonist. "Histamine" indicates stimulus with histamine. C: MTT cell viability assay after 24h, 48h and 72h of treatment of live cells with compounds of Formula (I) at different concentrations. In particular, black bar: cells treated with vehicle; dotted bars: compound at the concentration of 1 µM; bars with small black and white squares: compound at a concentration of 5 µM; bars with large black and white squares: compound at a concentration of 10 µM. A standardization was carried out with respect to the vehicle. […] A: Diagram depicting an experiment on an isolated rat heart by the Langendorff system. B: Coronary artery perfusion pressure (CPP) recorded on rat heart in conditions of stabilization, ischemia and reperfusion. C: Pressure developed by the left ventricle (LVPdp) recorded under the same conditions as B. D: End-diastolic pressure recorded in the same conditions as B and C. E: TUNEL apoptotic assay for the evaluation of the cardioprotective effect in cardiomyocytes of the heart.**:p value<0.01; ****:p value<0.0001.
(§2) Compounds 5c, 6g and 10 resulted to be very potent in inhibiting mPTP in the in vitro tests. In order to identify any side effects in the use of these compounds in living cells that could exclude their future development in therapy, and given the crucial role of the C subunit of the ATP synthase in energy production, two important parameters were evaluated, such as cell viability and mitochondrial ATP content, in basal conditions and following Ca^2+-dependent stimulus (Figure 5A-C).

[2] = tested on: mPTP; experiment: mitochondrial swelling assay (absorbance at 540 nm, Ca2+ stimulation); format: biochemical; settings: mitochondria isolated from mouse liver, monitored for 10 minutes
Source text: as §1, with “E: TUNEL apoptotic assay for the evaluation of the cardioprotective effect in cardiomyocytes of the heart.**:p value<0.01; ****:p value<0.0001.” left out
Mitochondria isolated from mouse liver were checked for purity (Figure 3A) and functionality thereof, and then stimulated with Ca^2+; the decrease in absorbance at 540 nm, indicative of mitochondrial swelling, was monitored for 10 minutes.

[3] = tested on: mPTP; experiment: cobalt-calcein assay of Ca2+-induced mPTP opening in HeLa cells (ionomycin stimulation); format: cell-based; settings: pre-treatment 1 µM, assessed by the kinetics slope
[4] = subcellular fractionation with HPLC-HRMS detection (subcellular localization); format: cell-based; settings: cells pre-treated with compound, mitochondria, cytosol and endoplasmic reticulum fractions
Source text: The data were obtained by recording the absorbance changes at 540 nm at the tenth minute of measurement, and subsequently converted to a percentage. Black bar: untreated and unstimulated mitochondria; black control bar: untreated and Ca2+ stimulated mitochondria; dark grey bar: pre-treatment with CsA and stimulation with Ca2+; light bar: pre-treatment with RR and stimulation with Ca2+; first white bar from the top: treatment with compound 1 and stimulation with Ca2+; white bars: pre-treatment with the compounds of the invention and stimulation with Ca2+. […] The grey region of the HPLC spectrum corresponds to a single mass peak at [M+1]+ m/z of 386.1534 (lower panel, [M+H]+ calculated for compound 1 = 386.1533). […] The grey band of the HPLC spectrum corresponds to a mixture of mass peaks detected through the HRMS analysis (lower panel). […] A: Content of mitochondrial ATP in living cells under basal conditions, evaluated based on the luciferase-luciferin protocol. […] B: Coronary artery perfusion pressure (CPP) recorded on rat heart in conditions of stabilization, ischemia and reperfusion. C: Pressure developed by the left ventricle (LVPdp) recorded under the same conditions as B. D: End-diastolic pressure recorded in the same conditions as B and C. […]

[5] = tested on: live cells; experiment: MTT cell viability assay; format: cell-based; settings: micromolar concentrations (1, 5, 10 µM); for reduction of MTT compared to the control: 24h and 48h; for effect on cell viability (MTT): after 72h
Source text: (§3) The data were obtained by recording the absorbance changes at 540 nm at the tenth minute of measurement, and subsequently converted to a percentage. Black bar: untreated and unstimulated mitochondria; black control bar: untreated and Ca2+ stimulated mitochondria; dark grey bar: pre-treatment with CsA and stimulation with Ca2+; light bar: pre-treatment with RR and stimulation with Ca2+; first white bar from the top: treatment with compound 1 and stimulation with Ca2+; white bars: pre-treatment with the compounds of the invention and stimulation with Ca2+. […] The subcellular localization of compound 1 was studied by HPLC-HRMS analysis of samples from different cellular compartments, before and after treatment with the compound. […] The grey region of the HPLC spectrum corresponds to a single mass peak at [M+1]+ m/z of 386.1534 (lower panel, [M+H]+ calculated for compound 1 = 386.1533). […] The grey band of the HPLC spectrum corresponds to a mixture of mass peaks detected through the HRMS analysis (lower panel). C: HPLC-HRMS profile of the mitochondrial fraction isolated from cells pre-treated with compound 1 which clearly indicates the presence of the compound with an HPLC band at a retention time of 8.2 min (upper panel). The grey area of the signal corresponds to a mixture of mass peaks (lower panel) among which [M+1]+ m/z of 386.1534, which identifies the undetectable compound 1 in the corresponding untreated fraction (panel B). […] A: Content of mitochondrial ATP in living cells under basal conditions, evaluated based on the luciferase-luciferin protocol. B: Mitochondrial ATP production following stimulation by a Ca2+ dependent agonist. "Histamine" indicates stimulus with histamine. C: MTT cell viability assay after 24h, 48h and 72h of treatment of live cells with compounds of Formula (I) at different concentrations. […] B: Coronary artery perfusion pressure (CPP) recorded on rat heart in conditions of stabilization, ischemia and reperfusion. C: Pressure developed by the left ventricle (LVPdp) recorded under the same conditions as B. D: End-diastolic pressure recorded in the same conditions as B and C. […]
as §2

[6] = tested on: release of cytochrome C (Cyt.C) from the mitochondria; experiment: detection of cytochrome c in the mitochondrial fraction under Ca2+-dependent stress; format: cell-based; settings: Ca2+-dependent stress conditions
[7] = tested on: rat isolated heart; experiment: isolated rat heart ischemia-reperfusion (Langendorff system), with TUNEL assay; format: in vivo; settings: ex vivo
Source text: as §3
Considering the potential of the inhibitors claimed herein in relation to: i) ability to desensitize the opening of mPTP; ii) ability to protect against cell death by inhibiting the release of Cyt.C; iii) ability to preserve cell viability, and iv) mitochondrial ATP content, the effects of compound 10 were studied in an animal model of cardiac ischemia-reperfusion. […] At the end of the procedure, the hearts were also analyzed for cell death by terminal deoxynucleotidyl transferase dUTP nick-end labelling (TUNEL) assay.

[8] = 10 µM constant-volume perfusion during the first 10 minutes of reperfusion, 30 minutes ischemia, 1 hour reperfusion

| SMILES | proton flow and ATP synthesis / ATP levels [1] | inhibition of Ca2+-induced mPTP opening (mitochondrial swelling, decrease in absorbance at 540 nm) [2] | reduction of MTT compared to the control [5] | effect on cell viability (MTT) [5] | release of Cyt.C from the mitochondria [6] | further results |
| --- | --- | --- | --- | --- | --- | --- |
| CC[C@H]1/C=C/C=C/C[C@@H](C)[C@H](O)[C@@](C)(O)C(=O)[C@@H](C)[C@H](O)[C@@H](C)C(=O)[C@@H](C)[C@H](O)[C@@H](C)/C=C/C(=O)O[C@@H]2[C@H](C)[C@H](CC1)O[C@]1(CC[C@H](C)[C@H](C[C@@H](C)O)O1)[C@H]2C [Oligomycin, reference compound] | significantly inhibited |  |  |  |  |  |
| N.N.N.N.N.N.N.N.N.N.N.N.N.N.[Cl-].[Cl-].[Cl-].[Cl-].[Cl-].[Cl-].[O-2].[O-2].[Ru+3].[Ru+3].[Ru+4] [RR, Red Ruthenium, reference compound] |  | prevented |  |  |  |  |
| Cc1ccc(S(=O)(=O)N2CCC3(CC2)C(=O)NCN3c2ccccc2)cc1 [compound 1, 1-phenyl-8-tosyl-1,3,8-triazaspiro[4.5]decan-4-one] | significantly inhibited |  |  |  |  | desensitization of the mPTP opening [3]: about 50%; subcellular localization [4]: selective accumulation of the compound in the mitochondria |
| O=C1N=CN(c2ccc(Cl)cc2)C12CCN(Cc1ccccc1)CC2 [compound 5c, 8-benzyl-1-(4-chlorophenyl)-1,3,8-triazaspiro[4.5]dec-2-en-4-one] | did not reduce ATP levels | significantly more performing than compound 1 | did not induce a significant reduction | some negative effect | prevent the release of Cyt.C |  |
| O=C1NCN(c2cccc(C(F)(F)F)c2)C12CCN(Cc1ccccc1)CC2 [compound 6g, 8-benzyl-1-(3-(trifluoromethyl)phenyl)-1,3,8-triazaspiro[4.5]decan-4-one] | did not reduce ATP levels | significantly more performing than compound 1 |  |  | prevent the release of Cyt.C |  |
| O=C1NCN(c2ccccc2)C12CCN(S(=O)(=O)c1ccc(Cl)s1)CC2 [compound 10, 8-((5-chlorotiophen-2-yl)sulfonyl)-1-phenyl-1,3,8-triazaspiro[4.5]decan-4-one] | did not reduce ATP levels | significantly more performing than compound 1 | did not induce a significant reduction | some negative effect | prevent the release of Cyt.C | coronary perfusion pressure (CPP) [7, 8]: decrease; diastolic pressure (EDP) [7, 8]: decrease; diastolic pressure of the left ventricle (LVEDP) [7, 8]: increased; percentage of cardiomyocytes positive for TUNEL (apoptotic) ([7]; 10µM, hearts at the end of the procedure, 64% positive without compound): significantly reduced |
